{
  "source": "the supplement of paper PMC10307832",
  "test_in_all_cases": "relative viability (nuclei count vs DMSO), 5 days (fraction); higher = more cells survive",
  "key": {"RU-SKI 43 + Decitabine": {"compound": "CC[C@@H](C)CNCC(=O)N1CCC2=C([C@@H]1COC3=CC=CC(=C3)C)C=CS2 [RU-SKI 43] + Nc1ncn([C@H]2C[C@H](O)[C@@H](CO)O2)c(=O)n1 [Decitabine] (partner 2 µM)", "summary_of_the_method": "(§1)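 After 5 days of treatment, lung cancer cells in 1536-well plates were fixed and stained in a single step (final 0.05% Triton X-100, 1% formaldehyde, 1 ug/ml Hoechst) and their nuclei counted on 4× images. Treatment had been applied by pin tool the day after seeding as one drug alone or as a fixed anchor-drug dose with five library-drug doses (not always all listed) in √10 steps. Relative viability is the nuclei count of treated wells divided by that of vehicle wells, and values are medians of duplicate plates.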"}, "MK-8033 + Bortezomib": {"compound": "Cn1cc(-c2cnc3ccc4ccc(CS(=O)(=O)NCc5ccccn5)cc4c(=O)c3c2)cn1 [MK-8033] + CC(C)C[C@H](NC(=O)[C@H](Cc1ccccc1)NC(=O)c1cnccn1)B(O)O [Bortezomib] (partner 0.002 µM)", "summary_of_the_method": "as §1"}, "Irinotecan + OSI-027": {"compound": "CCc1c2c(nc3ccc(OC(=O)N4CCC(N5CCCCC5)CC4)cc13)-c1cc3c(c(=O)n1C2)COC(=O)[C@]3(O)CC [Irinotecan] + COc1cccc2cc(-c3nc([C@H]4CC[C@H](C(=O)O)CC4)n4ncnc(N)c34)[nH]c12 [OSI-027] (partner 0.5 µM)", "summary_of_the_method": "as §1"}, "MK-8033 + Olaparib": {"compound": "Cn1cc(-c2cnc3ccc4ccc(CS(=O)(=O)NCc5ccccn5)cc4c(=O)c3c2)cn1 [MK-8033] + O=C(c1cc(Cc2n[nH]c(=O)c3ccccc23)ccc1F)N1CCN(C(=O)C2CC2)CC1 [Olaparib] (partner 8 µM)", "summary_of_the_method": "as §1"}},
  "data": [
    {"cell line": "UMC-11", "values": [
      {"measurement": "relative viability", "setting": "RU-SKI 43 + Decitabine; first compound 0.1 µM", "value": 0.668},
      {"measurement": "relative viability", "setting": "RU-SKI 43 + Decitabine; first compound 0.3162 µM", "value": 0.614},
      {"measurement": "relative viability", "setting": "RU-SKI 43 + Decitabine; first compound 1 µM", "value": 0.675},
      {"measurement": "relative viability", "setting": "RU-SKI 43 + Decitabine; first compound 3.162 µM", "value": 0.619},
      {"measurement": "relative viability", "setting": "RU-SKI 43 + Decitabine; first compound 10 µM", "value": 0.64},
      {"measurement": "relative viability", "setting": "MK-8033 + Bortezomib; first compound 0.02 µM", "value": 0.673},
      {"measurement": "relative viability", "setting": "MK-8033 + Bortezomib; first compound 0.06325 µM", "value": 0.664},
      {"measurement": "relative viability", "setting": "MK-8033 + Bortezomib; first compound 0.2 µM", "value": 0.831},
      {"measurement": "relative viability", "setting": "MK-8033 + Bortezomib; first compound 0.6325 µM", "value": 0.665},
      {"measurement": "relative viability", "setting": "MK-8033 + Bortezomib; first compound 2 µM", "value": 0.664},
      {"measurement": "relative viability", "setting": "Irinotecan + OSI-027; first compound 0.6325 µM", "value": 0.461},
      {"measurement": "relative viability", "setting": "Irinotecan + OSI-027; first compound 2 µM", "value": 0.475},
      {"measurement": "relative viability", "setting": "Irinotecan + OSI-027; first compound 6.325 µM", "value": 0.279},
      {"measurement": "relative viability", "setting": "Irinotecan + OSI-027; first compound 20 µM", "value": 0.155},
      {"measurement": "relative viability", "setting": "MK-8033 + Olaparib; first compound 0.02 µM", "value": 0.449},
      {"measurement": "relative viability", "setting": "MK-8033 + Olaparib; first compound 0.06325 µM", "value": 0.375},
      {"measurement": "relative viability", "setting": "MK-8033 + Olaparib; first compound 0.2 µM", "value": 0.353},
      {"measurement": "relative viability", "setting": "MK-8033 + Olaparib; first compound 0.6325 µM", "value": 0.405},
      {"measurement": "relative viability", "setting": "MK-8033 + Olaparib; first compound 2 µM", "value": 0.37}
    ]}
  ]
}
